How the values were obtained:
K562 cells = experiment: Cell proliferation, MTS assay; type: cell-based; conditions: 0-20 µM, 0-72 h
Description: (§1) Cell proliferation rates were measured by using the CellTitre 96 AqueousOne kit (Promega) and bromodeoxyuridine (BrdU) assay kit (Millipore) according to the manufacturer’s protocol as we have described ([51]). Cytotoxicity was evaluated by using the commercial kit (CAT# 8078, ThermoFisher). Culture media was collected and used to measure lactate dehydrogenase (LDH) levels by a colorimetric method following the manufacture’s protocol (ThermoFisher). Cell cycling was assessed by using BrdU incorporation into S-phase DNA by using the APC BrdU flow kit (BD Pharmingen; Franklin Lakes, New Jersey) according to the manufacturer’s protocol. 1 mM of BrdU was added to cells and incubated for 6 h. Cells were incubated with anti-BrdU antibody and stained with 7-AAD before processing the cells for flow cytometry ([52]). Immunoblotting assays followed the standard protocol as we have reported ([51]–[53]).

HeLa cells = experiment: FACS cell cycle assay; type: cell-based; conditions: 20 µM, 48 h
Description: as §1

[1] = test system: phospho-H2AXγ protein levels in K562 cells; experiment: Immunoblotting of phospho-H2AXγ (DNA damage); type: cell-based; conditions: 4 h
Description: as §1

K562 xenografts = experiment: K562 xenografts, intra-tumor polymeric paste; type: in vivo, nude mice (Nu/Nu); conditions: single 30 µl paste, 1% T60 or T633, 0.3% etoposide
Description: The polymeric paste was prepared with 50% poly-DL-lactide-coglycolide (PLGA) and 50% PEG 300 (w/w) as we have reported ([57]). […] The density of the paste was determined to be 1.2 g/ml ( ± 3%). One million K562 cells were inoculated subcutaneously in bilateral flanks of nude mice (Nu/Nu). […] Tumor volumes were measured every three days and were calculated by length × width × depth × 0.5236. Mice were euthanized when tumor volumes reached 15% of body weight or weight loss >20% occurred. The remaining mice were euthanized after the control group was euthanized. All animal procedures were under the guidelines of the Canadian Council on Animal Care and were approved by the UBC Animal Care Committee (# A19-0256).

AR-v7 = experiment: Probasin- and PSA-luciferase reporter in 293T cells; type: cell-based; conditions: 0-20 µM
[2] = test system: AR proteins in LNCaP cells; experiment: AR nuclear localization, cytoplasmic/nuclear western blotting; type: cell-based; conditions: 20 µM, 24 h
TOP2B [3] = target: T1, TOP2B (Homo sapiens, UniProt Q02880); experiment: K-DNA decatenation assay; type: biochemical; parameters: full-length human TOP2A and TOP2B protein (TopoGEN and Inspiralis respectively); purchased Inspiralis HTB205; conditions: densitometry of D-DNA bands; read-out: IC50, inhibition of TOP2B K-DNA decatenation
Description: (§2) The human TOP2 assay kit (#TG1001, TopoGEN, Buena Vista, CO) and TOP2B (HTB205, Inspiralis, UK) were used for K-DNA decatenation assays. […] The reaction was incubated at 37C for 2 h after which 4 µl stop solution (5× buffer is 5% Sarkosyl, 0.125% bromophenol blue, 25% glycerol) was added. The reaction was resolved by electrophoresis on a 0.8% agarose gel at 60 V and stained with 0.5 µg/ml ethidium bromide for 15 min. DNA bands were visualized using a gel imager (Gel Doc™ EZ System) and quantified using the Image Studio™ Lite Quantification Software.

TOP2B [4] = target: T1, TOP2B; experiment: DNA relaxation assay (supercoiled pHOT-1 plasmid); type: biochemical; parameters: full-length human TOP2A and TOP2B protein (TopoGEN and Inspiralis respectively); purchased Inspiralis HTB205; conditions: densitometry of SC bands; read-out: IC50, inhibition of TOP2B plasmid DNA relaxation
Description: The human TOP2A and TOP2B were used to perform DNA relaxation assays. […] The reaction was incubated at 37C for 2 h and stopped by adding 2 µl of 10% SDS and 1 µl of 250 mM of EDTA, followed by the addition of 50 µg/ml of proteinase K at 45 C for 1 h. The reaction was then resolved by electrophoresis on a 1% agarose gel at 80 V and stained with 0.5 µg/ml ethidium bromide for 15 min. DNA bands were visualized using a gel imager (Gel Doc™ EZ System) and quantified using the Image Studio™ Lite Quantification Software.

TOP2B [5] = target: T1, TOP2B; experiment: DNA cleavage assay; type: biochemical; parameters: full-length human TOP2A and TOP2B protein (TopoGEN and Inspiralis respectively); purchased Inspiralis HTB205; conditions: co-treatment with 200 µM etoposide; 1, 100, 200 µM
Description: The reactions were incubated in 37C for 30 min and stopped by adding 2 µl of 10% SDS and 1 µl of 250 mM of EDTA, followed by the addition of 50 µg/ml of proteinase K at 45C for 30 min. The reaction was then resolved by electrophoresis on a 1% agarose gel containing […] ethidium bromide in TAE buffer at 60 V. DNA bands were visualized using a gel imager (Gel Doc™ EZ System) and quantified by using the Image Studio™ Lite Quantification Software.

TOP2A = TOP2A (Homo sapiens, UniProt P11388); experiment: K-DNA decatenation assay; type: biochemical; parameters: full-length human TOP2A and TOP2B protein (TopoGEN and Inspiralis respectively); purchased TopoGEN TG1001 (human TOP2 assay kit)
Description: as §2

T1 sequence (Q02880 whole entry): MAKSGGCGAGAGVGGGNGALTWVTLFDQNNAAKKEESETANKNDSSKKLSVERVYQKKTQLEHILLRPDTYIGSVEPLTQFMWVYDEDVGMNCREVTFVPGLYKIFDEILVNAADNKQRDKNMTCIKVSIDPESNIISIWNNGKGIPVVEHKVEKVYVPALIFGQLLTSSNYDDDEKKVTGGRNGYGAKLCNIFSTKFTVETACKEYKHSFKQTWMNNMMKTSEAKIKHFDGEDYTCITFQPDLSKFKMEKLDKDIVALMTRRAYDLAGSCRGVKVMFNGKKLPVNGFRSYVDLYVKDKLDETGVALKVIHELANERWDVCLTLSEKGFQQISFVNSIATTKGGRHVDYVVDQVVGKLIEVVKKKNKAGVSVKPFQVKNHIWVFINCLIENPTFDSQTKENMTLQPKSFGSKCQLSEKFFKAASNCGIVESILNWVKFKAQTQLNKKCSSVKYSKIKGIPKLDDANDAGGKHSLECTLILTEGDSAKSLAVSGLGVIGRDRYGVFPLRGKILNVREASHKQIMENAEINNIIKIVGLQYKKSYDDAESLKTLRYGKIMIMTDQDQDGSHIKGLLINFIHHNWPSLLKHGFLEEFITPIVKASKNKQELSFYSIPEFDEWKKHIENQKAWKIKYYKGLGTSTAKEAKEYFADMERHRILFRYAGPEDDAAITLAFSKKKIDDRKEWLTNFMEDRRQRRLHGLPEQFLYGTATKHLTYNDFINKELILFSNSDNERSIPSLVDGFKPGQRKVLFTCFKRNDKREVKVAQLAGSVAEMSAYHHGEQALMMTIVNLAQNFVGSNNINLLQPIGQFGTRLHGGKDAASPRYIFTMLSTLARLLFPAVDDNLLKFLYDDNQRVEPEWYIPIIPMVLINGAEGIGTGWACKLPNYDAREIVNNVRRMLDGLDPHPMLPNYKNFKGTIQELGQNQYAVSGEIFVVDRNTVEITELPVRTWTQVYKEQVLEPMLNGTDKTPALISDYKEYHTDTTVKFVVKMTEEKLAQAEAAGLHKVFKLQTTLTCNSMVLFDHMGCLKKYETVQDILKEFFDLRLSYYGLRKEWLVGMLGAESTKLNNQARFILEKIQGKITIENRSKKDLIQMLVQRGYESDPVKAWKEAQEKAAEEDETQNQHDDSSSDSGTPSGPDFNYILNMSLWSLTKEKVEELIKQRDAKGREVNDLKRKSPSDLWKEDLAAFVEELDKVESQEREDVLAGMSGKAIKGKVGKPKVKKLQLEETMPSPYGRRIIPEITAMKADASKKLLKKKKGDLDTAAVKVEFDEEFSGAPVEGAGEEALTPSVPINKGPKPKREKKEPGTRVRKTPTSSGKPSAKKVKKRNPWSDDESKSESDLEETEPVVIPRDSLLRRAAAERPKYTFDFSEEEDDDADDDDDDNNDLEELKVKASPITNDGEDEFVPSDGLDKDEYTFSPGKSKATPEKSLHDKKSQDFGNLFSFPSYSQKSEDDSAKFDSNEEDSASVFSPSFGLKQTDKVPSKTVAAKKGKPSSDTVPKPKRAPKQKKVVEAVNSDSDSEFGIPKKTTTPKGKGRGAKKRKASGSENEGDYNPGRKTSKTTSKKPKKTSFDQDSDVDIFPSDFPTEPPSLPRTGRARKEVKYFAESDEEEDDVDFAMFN
TOP2A, sequence (P11388 whole entry): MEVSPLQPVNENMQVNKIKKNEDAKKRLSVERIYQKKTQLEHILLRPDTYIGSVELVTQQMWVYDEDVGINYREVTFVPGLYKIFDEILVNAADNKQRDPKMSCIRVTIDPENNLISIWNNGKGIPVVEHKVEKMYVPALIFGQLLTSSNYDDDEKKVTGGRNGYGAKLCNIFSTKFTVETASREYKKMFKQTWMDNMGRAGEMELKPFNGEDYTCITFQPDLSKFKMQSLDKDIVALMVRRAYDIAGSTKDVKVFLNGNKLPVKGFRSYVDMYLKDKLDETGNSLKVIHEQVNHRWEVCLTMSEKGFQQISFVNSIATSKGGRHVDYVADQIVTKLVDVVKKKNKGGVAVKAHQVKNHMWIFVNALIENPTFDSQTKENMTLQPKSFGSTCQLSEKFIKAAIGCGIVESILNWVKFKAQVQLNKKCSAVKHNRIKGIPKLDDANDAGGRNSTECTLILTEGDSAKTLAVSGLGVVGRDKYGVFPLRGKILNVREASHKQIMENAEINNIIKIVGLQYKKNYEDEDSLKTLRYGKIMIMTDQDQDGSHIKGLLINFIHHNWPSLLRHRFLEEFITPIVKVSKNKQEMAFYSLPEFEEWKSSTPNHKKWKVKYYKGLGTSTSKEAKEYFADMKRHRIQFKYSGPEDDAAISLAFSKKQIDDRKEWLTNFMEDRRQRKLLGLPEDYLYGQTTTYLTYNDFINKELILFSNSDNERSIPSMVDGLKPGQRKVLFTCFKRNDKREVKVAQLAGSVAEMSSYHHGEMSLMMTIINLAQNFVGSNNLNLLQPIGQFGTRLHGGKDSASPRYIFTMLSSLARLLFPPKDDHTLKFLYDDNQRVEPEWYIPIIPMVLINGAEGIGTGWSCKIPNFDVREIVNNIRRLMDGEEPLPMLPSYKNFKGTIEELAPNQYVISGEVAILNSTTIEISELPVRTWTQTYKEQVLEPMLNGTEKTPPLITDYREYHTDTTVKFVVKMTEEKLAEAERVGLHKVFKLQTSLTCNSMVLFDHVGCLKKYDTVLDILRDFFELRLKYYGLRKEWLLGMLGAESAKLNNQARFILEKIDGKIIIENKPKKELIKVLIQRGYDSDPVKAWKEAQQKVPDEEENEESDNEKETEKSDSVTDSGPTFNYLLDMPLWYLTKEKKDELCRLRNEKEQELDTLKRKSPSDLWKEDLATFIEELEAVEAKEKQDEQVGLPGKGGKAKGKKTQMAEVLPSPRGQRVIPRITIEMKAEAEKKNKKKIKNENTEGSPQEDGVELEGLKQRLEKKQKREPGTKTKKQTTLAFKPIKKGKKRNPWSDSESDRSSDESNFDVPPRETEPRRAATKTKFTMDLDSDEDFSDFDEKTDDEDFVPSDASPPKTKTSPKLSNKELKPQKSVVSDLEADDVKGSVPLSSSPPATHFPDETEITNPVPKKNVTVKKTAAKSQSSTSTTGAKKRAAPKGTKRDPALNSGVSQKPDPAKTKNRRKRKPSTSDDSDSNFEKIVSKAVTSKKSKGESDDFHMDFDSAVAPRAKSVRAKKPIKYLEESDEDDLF

Structure (SMILES): O=C(Nc1ccc(Nc2ccccc2)cc1)c1ccc[nH]c1=S [T60]
- K562 cell proliferation (K562 cells): inhibited K562 cell proliferation in a dose- and time-dependent manner
- Cell cycle distribution (HeLa cells): reduced at the G1 phase, but accumulated at S and G2/M phases
- Effect on etoposide-induced phospho-H2AXγ protein levels ([1]; 20 µM, co-treated with 10–20 µM etoposide): inhibited etoposide-induced phospho-H2AXγ protein levels
- Intracellular DNA damage (phospho-H2AXγ protein levels) ([1]; 10–20 µM): did not cause intracellular DNA damage
- Tumor growth at the end of two weeks (K562 xenografts): strongly inhibit tumor growth comparable to etoposide
- Luciferase activities driven by probasin and PSA promoters, AR-v7 (AR-v7): inhibited luciferase activities
- Nuclear localization of AR proteins, LNCaP [2]: reduced nuclear localization
- IC50 (TOP2B [3]): ~3 µM
- IC50 (TOP2B [4]): ~8.9 µM
- Prevention of etoposide-induced DNA cleavage, TOP2B (TOP2B [5]): prevented
- Inhibition of TOP2A mediated K-DNA decatenation (TOP2A; Figure 3A): inhibited
- IC50 (TOP2A; densitometry of D-DNA bands, read-out: IC50, inhibition of TOP2A K-DNA decatenation): ~300 nM
